Experimental data from paper PMC8301025 (Biology, 2021).

Target: T1, CLas GMPS (guanosine 5′-monophosphate synthetase)
T1 construct: gene guaA
Format: biochemical, Candidatus Liberibacter asiaticus

| SMILES | Ki [µM] |
| --- | --- |
| CCN(CCCOc1ccc2c(Nc3cc(CC(=O)Nc4cccc(F)c4)n[nH]3)ncnc2c1)CCOP(=O)(O)O [Compound1334, AZD1152] | 4.05 |
| Nc1nc(=O)c2nc(CNc3ccc(C(=O)N[C@@H](CCC(=O)O)C(=O)O)cc3)cnc2[nH]1 [Compound5481, folic acid] | 52 |
